From patent US9765091B2, “Tetrahydropyrazolo [3,4-b] azepine derivatives and their use as allosteric modulators of metabotropic glutamate receptors” (Addex Pharma S.A., priority 2010, dated 2017) come the findings set out here.

Some results are limits rather than exact numbers.

For orientation: EC50 means the concentration that produces a half-maximal response. Usually melting point stands for the temperature, or range, at which the solid turns liquid.

In data set [1] the target is T1, human mGluR4 (Homo sapiens, UniProt Q14833).
T1 construct: expressed in transfected cells
T1 sequence (Q14833 33-912): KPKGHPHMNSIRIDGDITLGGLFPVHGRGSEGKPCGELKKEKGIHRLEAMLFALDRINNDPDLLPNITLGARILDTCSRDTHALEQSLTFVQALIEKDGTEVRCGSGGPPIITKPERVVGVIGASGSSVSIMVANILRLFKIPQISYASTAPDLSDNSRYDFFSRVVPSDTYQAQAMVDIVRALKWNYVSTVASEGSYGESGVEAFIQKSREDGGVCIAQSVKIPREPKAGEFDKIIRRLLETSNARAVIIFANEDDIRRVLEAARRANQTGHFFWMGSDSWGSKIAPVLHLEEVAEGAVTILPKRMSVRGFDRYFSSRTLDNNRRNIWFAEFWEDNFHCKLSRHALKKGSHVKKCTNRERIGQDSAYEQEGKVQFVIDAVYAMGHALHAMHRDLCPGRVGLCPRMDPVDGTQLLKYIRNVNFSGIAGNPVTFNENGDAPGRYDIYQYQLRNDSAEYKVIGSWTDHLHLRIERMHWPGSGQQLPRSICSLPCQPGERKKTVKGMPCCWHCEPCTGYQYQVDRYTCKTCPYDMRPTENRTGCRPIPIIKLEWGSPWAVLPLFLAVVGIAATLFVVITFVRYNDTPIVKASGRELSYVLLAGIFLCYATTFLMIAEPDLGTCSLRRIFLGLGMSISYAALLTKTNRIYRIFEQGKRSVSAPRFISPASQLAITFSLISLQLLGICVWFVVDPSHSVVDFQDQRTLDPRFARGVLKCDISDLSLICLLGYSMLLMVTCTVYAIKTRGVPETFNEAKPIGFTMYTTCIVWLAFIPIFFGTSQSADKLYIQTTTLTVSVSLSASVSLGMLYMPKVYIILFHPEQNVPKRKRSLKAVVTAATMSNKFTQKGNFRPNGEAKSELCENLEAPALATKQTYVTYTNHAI
The data set can be described thus: Fluorescent cell based Ca2+ mobilization assay (FLIPR) on HEK-293 cells expressing human mGluR4. To be noted: positive allosteric modulation, HEK-293 cells expressing hmGluR4, stimulated by EC25 glutamate; mean of at least three independent experiments in duplicate; read-out: Ca^2+ Flux* (mean EC50). From the text: mGluR4 Assay on HEK-Expressing Human mGluR4
The compounds of the present invention are positive allosteric modulators of mGluR4 receptor. Their activity was examined on recombinant human mGluR4a receptors by detecting changes in intracellular Ca^2+ concentration, using the fluorescent Ca^2+-sensitive dye Fluo4-(AM) and a Fluorometric Imaging Plate Reader (FLIPR, Molecular Devices, Sunnyvale, Calif.).
The cDNA encoding the human metabotropic glutamate receptor (hmGluR4), (accession number NM_000841.1, NCBI Nucleotide database browser), was subcloned into an expression vector containing also the hygromycin resistance gene. In parallel, the cDNA encoding a G protein allowing redirection of the activation signal to intracellular calcium flux was subcloned into a different expression vector containing also the puromycin resistance gene. Transfection of both these vectors into HEK293 cells with PolyFect reagent (Qiagen) according to supplier's protocol, and hygromycin and puromycin treatment allowed selection of antibiotic resistant cells which had integrated stably one or more copies of the plasmids. Positive cellular clones expressing hmGluR4 were identified in a functional assay measuring changes in calcium fluxes in response to glutamate or selective known mGluR4 orthosteric agonists and antagonists. HEK-293 cells expressing hmGluR4 were maintained in media containing DMEM, dialyzed Fetal Calf Serum (10%), Glutamax™ (2 mM), Penicillin (100 units/mL), Streptomycin (100 μg/mL), Geneticin (100 μg/mL) and Hygromycin-B (40 μg/mL) and puromycin (1 μg/mL) at 37° C./5% CO2.
Human mGluR4 HEK-293 cells were plated out 24 hours prior to FLIPR^384 assay in black-walled, clear-bottomed, poly-L-ornithine-coated 384-well plates at a density of 25,000 cells/well in a glutamine/glutamate free DMEM medium containing foetal bovine serum (10%), penicillin (100 units/mL) and streptomycin (100 μg/mL) at 37° C./5% CO2.
On the day of the assay, the medium was aspirated and the cells were loaded with a 3 μM solution of Fluo4-AM (LuBioScience, Lucerne, Switzerland) in 0.03% pluronic acid. After 1 hour at 37° C./5% CO2, the non incorporated dye was removed by washing cell plate with the assay buffer and the cells were left in the dark at room temperature for […] before testing. All assays were performed in a pH 7.4 buffered-solution containing 20 mM HEPES, 143 mM NaCl, 6 mM KCl, 1 mM MgSO4, 1 mM CaCl2, 0.125 mM sulfapyrazone and 0.1% glucose.
After 10 s of basal fluorescence recording, various concentrations of the compounds of the invention were added to the cells. Changes in fluorescence levels were first monitored for 180 s in order to detect any agonist activity of the compounds. Then the cells were stimulated by an EC25 glutamate concentration for an additional 110 s in order to measure enhancing activities of the compounds of the invention. EC25 glutamate concentration is the concentration giving 25% of the maximal glutamate response.
The concentration-response curves of representative compounds of the present invention were generated using the Prism GraphPad software (Graph Pad Inc, San Diego, USA). The curves were fitted to a four-parameter logistic equation: (Y=Bottom+(Top−Bottom)/(1+10^((Log EC50−X)*Hill Slope) allowing the determination of EC50 values.
The Table 4 below represents the mean EC50 obtained from at least three independent experiments of selected molecules performed in duplicate.
(In general: Calcium assays in cells follow changes in intracellular calcium, usually with a dye or a luminescent sensor.)

`Cc1ccnc(Nc2nc3c(s2)CCN(C)c2n[nH]cc2-3)n1` [Compound 1-1, 6-Methyl-N-(4-methylpyrimidin-2-yl)-4,5,6,8-tetrahydropyrazolo[3,4-b]thiazolo[4,5-d]azepin-2-amine]: the melting point worked out at 292 °C. The EC50 in data set [1] is less than 100 nM.
For `Cc1ccnc(Nc2nc3c(s2)CCN(C(C)C)c2n[nH]cc2-3)n1` [Compound 1-5, 6-Isopropyl-N-(4-methylpyrimidin-2-yl)-4,5,6,8-tetrahydropyrazolo[3,4-b]thiazolo[4,5-d]azepin-2-amine], the melting point came to 247 °C. The EC50 in data set [1] was less than 100 nM.
The like results for `Cc1nc(Nc2nc3c(s2)CCN(C)c2n[nH]cc2-3)ns1` [Compound 1-8, 6-Methyl-N-(5-methyl-1,2,4-thiadiazol-3-yl)-4,5,6,8-tetrahydropyrazolo[3,4-b]thiazolo[4,5-d]azepin-2-amine] were, in that order, 291 °C and less than 100 nM.
On to `COCC(C)N1CCc2sc(Nc3nccc(C)n3)nc2-c2c[nH]nc21` (stereo not drawn) [Compound 1-11, 6-(1-Methoxypropan-2-yl)-N-(4-methylpyrimidin-2-yl)-4,5,6,8-tetrahydropyrazolo[3,4-b]thiazolo[4,5-d]azepin-2-amine], for which the melting point was 233 °C. Further, the EC50 in data set [1] is less than 100 nM.
The molecule `COCCN1CCc2sc(Nc3cccc(F)n3)nc2-c2c[nH]nc21` [Compound 1-14, N-(6-Fluoropyridin-2-yl)-6-(2-methoxyethyl)-4,5,6,8-tetrahydropyrazolo[3,4-b]thiazolo[4,5-d]azepin-2-amine] displayed a melting point of 203 °C. Also, the EC50 in data set [1] is less than 100 nM.
In the case of `COCCN1CCc2sc(Nc3ccc(F)cn3)nc2-c2c[nH]nc21` [Compound 1-15, N-(5-Fluoropyridin-2-yl)-6-(2-methoxyethyl)-4,5,6,8-tetrahydropyrazolo[3,4-b]thiazolo[4,5-d]azepin-2-amine], the melting point came to 218 °C. The EC50 in data set [1] lay in the range of 100 to 1000 nM.
Regarding `Cc1noc(C)c1CN1CCc2sc(Nc3ncc(F)cn3)nc2-c2c[nH]nc21` [Compound 1-23, 6-((3,5-Dimethylisoxazol-4-yl)methyl)-N-(5-fluoropyrimidin-2-yl)-4,5,6,8-tetrahydropyrazolo[3,4-b]thiazolo[4,5-d]azepin-2-amine], the melting point amounted to 275 °C. Further, the EC50 in data set [1] was less than 100 nM.
Molecule `CC(C)c1nc(CN2CCc3sc(Nc4ncc(F)cn4)nc3-c3c[nH]nc32)co1` [Compound 1-24, N-(5-Fluoropyrimidin-2-yl)-6-((2-isopropyloxazol-4-yl)methyl)-4,5,6,8-tetrahydropyrazolo[3,4-b]thiazolo[4,5-d]azepin-2-amine] showed a melting point of 271 °C. In addition, the concentration giving a half-maximal response (EC50) in data set [1] is less than 100 nM.
In turn, `Fc1cnc(Nc2nc3c(s2)CCNc2n[nH]cc2-3)nc1` [Compound 1-25, N-(5-Fluoropyrimidin-2-yl)-4,5,6,8-tetrahydropyrazolo[3,4-b]thiazolo[4,5-d]azepin-2-amine] had a melting point of 312 °C. The EC50 in data set [1] was less than 100 nM.
In the case of `CCN1CCc2sc(Nc3ncc(F)cn3)nc2-c2c[nH]nc21` [Compound 1-34, 6-Ethyl-N-(5-fluoropyrimidin-2-yl)-4,5,6,8-tetrahydropyrazolo[3,4-b]thiazolo[4,5-d]azepin-2-amine], the melting point stood at 306 °C. The EC50 in data set [1] was less than 100 nM.
`Cc1cc(CN2CCc3sc(Nc4ncc(F)cn4)nc3-c3c[nH]nc32)on1` [Compound 1-35, N-(5-Fluoropyrimidin-2-yl)-6-((3-methylisoxazol-5-yl)methyl)-4,5,6,8-tetrahydropyrazolo[3,4-b]thiazolo[4,5-d]azepin-2-amine] showed a melting point of 280 °C. Moreover, the EC50 in data set [1] was less than 100 nM.
On to `Cc1cccc(Nc2nc3c(s2)CCN(CC2CC2)c2n[nH]cc2-3)n1` [Compound 1-39, 6-(Cyclopropylmethyl)-N-(6-methylpyridin-2-yl)-4,5,6,8-tetrahydropyrazolo[3,4-b]thiazolo[4,5-d]azepin-2-amine], for which the melting point was 285 °C. In data set [1], the EC50 lay in the range of 100 to 1000 nM.
Take `N#Cc1ccc(CN2CCc3sc(Nc4ncc(F)cn4)nc3-c3cn[nH]c32)cc1` [Compound 1-68, 4-((2-(5-Fluoropyrimidin-2-ylamino)-4,5-dihydropyrazolo[3,4-b]thiazolo[4,5-d]azepin-6(7H)-yl)methyl)benzonitrile]: the EC50 in data set [1] is less than 100 nM.
In the case of `Fc1cnc(Nc2nc3c(s2)CCN(Cc2ccc(C(F)(F)F)cc2)c2[nH]ncc2-3)nc1` [Compound 1-69, N-(5-Fluoropyrimidin-2-yl)-6-(4-(trifluoromethyl)benzyl)-4,5,6,7-tetrahydropyrazolo[3,4-b]thiazolo[4,5-d]azepin-2-amine], the EC50 in data set [1] lay in the range of 100 to 1000 nM.
With `Cc1cccc(CN2CCc3sc(Nc4ncc(F)cn4)nc3-c3cn[nH]c32)n1` [Compound 1-70, N-(5-Fluoropyrimidin-2-yl)-6-((6-methylpyridin-2-yl)methyl)-4,5,6,7-tetrahydropyrazolo[3,4-b]thiazolo[4,5-d]azepin-2-amine], the EC50 in data set [1] lay in the range of 100 to 1000 nM.
In the case of `Fc1cnc(Nc2nc3c(s2)CCN(CCc2ccccn2)c2[nH]ncc2-3)nc1` [Compound 1-71, N-(5-Fluoropyrimidin-2-yl)-6-(2-(pyridin-2-yl)ethyl)-4,5,6,7-tetrahydropyrazolo[3,4-b]thiazolo[4,5-d]azepin-2-amine], the EC50 in data set [1] was 1000 to 10000 nM.
Regarding `COc1ccc(CN2CCc3sc(Nc4ncc(F)cn4)nc3-c3cn[nH]c32)nc1` [Compound 1-77, N-(5-Fluoropyrimidin-2-yl)-6-((5-methoxypyridin-2-yl)methyl)-4,5,6,7-tetrahydropyrazolo[3,4-b]thiazolo[4,5-d]azepin-2-amine], the EC50 in data set [1] was less than 100 nM.
For the molecule `Fc1cnc(Nc2nc3c(s2)CCN(CC2CCNCC2)c2[nH]ncc2-3)nc1` [Compound 1-78, N-(5-Fluoropyrimidin-2-yl)-6-(piperidin-4-ylmethyl)-4,5,6,7-tetrahydropyrazolo[3,4-b]thiazolo[4,5-d]azepin-2-amine], in data set [1], the EC50 is 1000 to 10000 nM.
`Fc1cnc(Nc2nc3c(s2)CCN(Cc2ncc(Cl)s2)c2[nH]ncc2-3)nc1` [Compound 1-79, 6-((5-Chlorothiazol-2-yl)methyl)-N-(5-fluoropyrimidin-2-yl)-4,5,6,7-tetrahydropyrazolo[3,4-b]thiazolo[4,5-d]azepin-2-amine]: the EC50 in data set [1] fell in the range of 100 to 1000 nM.
Consider `Cn1cnc(CN2CCc3sc(Nc4ncc(F)cn4)nc3-c3cn[nH]c32)c1` [Compound 1-80, N-(5-Fluoropyrimidin-2-yl)-6-((1-methyl-1H-imidazol-4-yl)methyl)-4,5,6,7-tetrahydropyrazolo[3,4-b]thiazolo[4,5-d]azepin-2-amine], for which the EC50 in data set [1] was in the range of 100 to 1000 nM.
Still for that read-out and setting: the same measure for `CC(c1ccc(Cl)cn1)N1CCc2sc(Nc3ncc(F)cn3)nc2-c2cn[nH]c21` (stereo not drawn) [Compound 1-81, 6-(1-(5-Chloropyridin-2-yl)ethyl)-N-(5-fluoropyrimidin-2-yl)-4,5,6,7-tetrahydropyrazolo[3,4-b]thiazolo[4,5-d]azepin-2-amine]: less than 100 nM; for `Fc1cnc(Nc2nc3c(s2)CCN(C2CCC2)c2[nH]ncc2-3)nc1` [Compound 1-82, 6-Cyclobutyl-N-(5-fluoropyrimidin-2-yl)-4,5,6,7-tetrahydropyrazolo[3,4-b]thiazolo[4,5-d]azepin-2-amine]: 1000 to 10000 nM.
As for `COCCN1CCc2sc(Nc3cccc(CF)n3)nc2-c2cn[nH]c21` [Compound 1-83, N-(6-(Fluoromethyl)pyridin-2-yl)-6-(2-methoxyethyl)-4,5,6,7-tetrahydropyrazolo[3,4-b]thiazolo[4,5-d]azepin-2-amine], the EC50 in data set [1] was in the range of 100 to 1000 nM.
Same read-out and setting: the same measure for `COCCN1CC(C)c2sc(Nc3ncc(F)cn3)nc2-c2cn[nH]c21` (stereo not drawn) [Compound 1-84, N-(5-Fluoropyrimidin-2-yl)-6-(2-methoxyethyl)-4-methyl-4,5,6,7-tetrahydropyrazolo[3,4-b]thiazolo[4,5-d]azepin-2-amine]: 100 to 1000 nM.
